Assay results as given in patent publication US20240423981A1, “TREATMENT OF HCM WITH PYRIMIDINEDIONE COMPOUNDS” (MyoKardia, Inc., priority 2017, published 2024).

Assays:
[1] = tested on: healthy men; test: Study Compound 1-002: single ascending-dose (SAD) trial in healthy volunteers; type: in vivo, human
Procedure: (§1) Three clinical studies have investigated the safety and tolerability of Compound 1 to date; conduct of 2 studies has completed and 1 study is ongoing. A double-blind, placebo-controlled, single ascending-dose study (SAD) (Compound 1-002) was conducted in healthy men. Subjects received single doses ranging from 1 mg to 48 mg. Conduct of an open-label sequential-group SAD study in subjects with clinically stable HCM (Compound 1-001) is also complete; single doses of up to 144 mg were administered. In addition, a double-blind, placebo-controlled, multiple ascending-dose (MAD) study (Compound 1-003) is being conducted in which healthy adult subjects have received multiple doses of Compound 1 up to 25 mg once daily (QD) for up to 28 days.
(§2) In Study Compound 1-002, single doses from 1 mg to 48 mg were administered as an oral suspension to healthy men. […] Single doses of ≥12 mg of Compound 1 were associated with detectable reductions in LV contractility from baseline as assessed by 3 independent echocardiographic measures (left ventricular ejection fraction [LVEF], LV fractional shortening (LVFS), and LVOT velocity time integral [VTI]). At the highest dose studied in healthy subjects (48 mg), mean reduction in LVEF at any time point was −6% relative to baseline.

[2] = Pre-clinical acute or chronic administration, haemodynamics; type: in vivo
[3] = Pharmacokinetics in Study Compound 1-002; type: in vivo; settings: single oral doses, healthy men
Procedure: as §2
(§3) Compound 1 concentrations were measured in human plasma using high pressure liquid chromatography (HPLC) coupled with tandem mass spectrometry (MS/MS). This method was used for Compound 1 bioanalysis in all clinical trials to date, and all clinical data has been collected using plasma. A brief description of the method follows.
Liquid-liquid extraction and HPLC/MS/MS was used to determine the concentration of Compound 1 in human plasma. An aliquot of the extract was injected onto an HPLC instrument that is coupled with a triple quadrupole mass spectrometer (Sciex API5500). […] The peak area of the product ion of Compound 1 was measured against the peak area of the product ion of the internal standard for determination of concentration.

[4] = tested on: healthy volunteers and HCM patients; test: Phase 1 program summary (three Phase 1 studies); type: in vivo, human
Procedure: as §1

[5] = tested on: healthy adult subjects; test: Study Compound 1-003: multiple ascending-dose (MAD) trial in healthy volunteers; type: in vivo, human
Procedure: as §1
In Study Compound 1-003, 4 cohorts of healthy adult subjects have been dosed, each scheduled to dose for 28 days. […] In cohort 3, 3 of 12 subjects who received blinded treatment (either Compound 1 12.5 mg or placebo QD) had diarrhea and/or abdominal cramps. One of these subjects was discontinued due to recurrence of diarrhea upon rechallenge, and the other 2 subjects were successfully restarted on study medication. The investigator considered these gastrointestinal AEs either mild or moderate in severity and likely related to study medication.
Dosing in cohort 4 was stopped on Day 25 by the investigator, because 5 of 12 subjects who received blinded treatment (either Compound 1 25 mg or placebo QD) achieved the predefined stopping criterion for dose ascension of ≥20% reduction in LVEF. All subjects remained asymptomatic.

[6] = tested on: obstructive HCM (oHCM) patients; test: Parts A and B of the phase 2 trial (PIONEER), pooled findings; type: in vivo, human
Excerpt: (§4) This is a phase 2 open-label pilot study to evaluate the efficacy, PK, PD, safety, and tolerability of Compound 1 in subjects with symptomatic HCM and LVOT obstruction. Approximately 10 adult subjects with symptomatic HCM, a resting LVOT gradient ≥30 mm Hg, and post-exercise peak LVOT gradient ≥50 mm Hg will be enrolled. The study will have a 12-week treatment phase and a 4-week washout phase (FIG. 3).
(§5) This trial was similar to the trial described in Example 3, but will have several important differences. For example, subjects in the Phase 2-B trial will not be required to discontinue their β-blocker therapy, and the dose of Compound 1 will be reduced to 2 to 5 mg.
as §3
(§6) Liquid-liquid extraction and HPLC/MS/MS was used to determine the concentration of Compound 1 in human plasma. An aliquot of the extract was injected onto an HPLC instrument that is coupled with a triple quadrupole mass spectrometer (Sciex API5500). A Lux 3u Cellulose-4 HPLC column (150×2.0 mm) from […], was used to separate Compound 1, from interfering compounds that may be present in the sample extract. The internal standard was a multi-deuterated analog of Compound 1 to ensure that the internal standard used in the assay had similar chemical properties to the analyte but a different mass for selective detection. The peak area of the product ion of Compound 1 was measured against the peak area of the product ion of the internal standard for determination of concentration.

[7] = as above; type: in vivo, human; settings: human, plasma, oral; read-out: concentrations associated with excessive pharmacological effect
Excerpt: as §4, §5, §3, §6

[8] = tested on: healthy volunteers; test: Adverse events in healthy volunteers of the Phase 1 trials; type: in vivo, human
Procedure: as §1

[9] = 12.5 mg cohort, 28-day treatment
[10] = 25 mg cohort treated for 25 days

With `CC(C)n1c(=O)cc(N[C@@H](C)c2ccccc2)[nH]c1=O` [Compound 1, (S)-3-Isopropyl-6-((1-phenylethyl)amino) pyrimidine-2, 4(1H,3H)-dione] the Responders % ([1]; 12 mg single dose cohort) was 50%, the Responders n ([1]; 12 mg single dose cohort) was 3/6 and the Responders % ([1]; 24 mg single dose cohort) was 83%. The Responders n ([1]; 24 mg single dose cohort) was 5/6, the Responders % ([1]; 48 mg single dose cohort) was 100% and the Responders n ([1]; 48 mg single dose cohort) was 6/6. For the same molecule, the “mean reduction in LVEF at any time point relative to baseline” value ([1]; 48 mg single dose, healthy subjects) was −6%, the “single dose associated with detectable reductions in LV contractility from baseline” value ([1]; 3 echocardiographic measures (LVEF, LVFS, LVOT VTI), healthy men) was at least 12 mg and the “changes in systolic blood pressure or heart rate” value ([1]; any dose level 1 mg to 48 mg) was “No changes in systolic blood pressure (BP) or heart rate (HR) were detected”. For the same molecule, the “incidence of treatment-emergent AEs versus dose” value ([1]; single doses 1 mg to 48 mg) was “did not appear to increase with dose”, the tolerability ([1]; single doses 1 mg to 48 mg, oral suspension, healthy men) was “well tolerated, with no serious adverse events (SAEs), deaths, or withdrawals from study due to adverse events (AEs) reported” and the “myocardial contractility, LV end-diastolic dimensions, blood pressure” value ([2]; acute or chronic administration) was “decreased myocardial contractility and increased LV end-diastolic dimensions while preserving systemic arterial blood pressure and, LV end-diastolic pressure”. For the same molecule, the “end-diastolic pressures and end-diastolic stiffness” value ([2]; versus acute effects of other negative inotropes) was “preserves end-diastolic pressures as well as the estimated (linear) end-diastolic stiffness despite marked increases in preload (EDV)”, the half-life ([3]; male, human, plasma, read-out: mean elimination half-life (converted)) was about 192 h and the “pharmacokinetic (PK) profile” value [3] was “rapid absorption and subsequent distribution followed by a long elimination phase”. The “proof of mechanism: cardiac contractility” value [4] was “dependent reduction in cardiac contractility”, the “PD evidence of reduced contractility” value ([5]; 12.5 mg QD and 25 mg QD groups) was “PD evidence of reduced contractility was apparent” and the Responders % [5, 9] was 30%. For the same molecule, the Responders n [5, 9] was 3/10, the Responders n ([5]; 18.5 mg cohort, 28-day treatment) was 10/10 and the Responders % [5, 10] was 100%. For the same molecule, the Responders n [5, 10] was 10/10, the Responders % ([5]; 25 mg cohort, 28-day treatment) was 100% and the “subjects with diarrhea and/or abdominal cramps” value ([5]; cohort 3, blinded treatment (Compound 1 12.5 mg or placebo QD)) was 3 of 12. For the same molecule, the “gastrointestinal AEs” value ([5]; cohort 4 (Compound 1 25 mg or placebo)) was “No gastrointestinal AEs were reported”, the “subjects achieving stopping criterion of ≥20% reduction in LVEF” value ([5]; cohort 4, blinded treatment (Compound 1 25 mg or placebo QD), dosing stopped on Day 25) was 5 of 12 and the “AE severity and SAEs” value ([5]; multiple doses up to 25 mg QD) was “All AEs were mild or moderate in severity, and there were no SAEs”. The tolerability ([5]; multiple doses up to 25 mg QD, healthy adults) was “well tolerated”, the “effects accompanying the gradient reduction” value ([6]; Parts A and B) was “improvement in symptoms, pVO2 during exercise, a decrease in NT pro-BNP and improvement in echocardiographic measures of diastolic function” and the diastolic function ([6]; Parts A and B, Tables 9 and 10) was “diastolic improvement”. The “tolerability of the therapeutic concentration range” value ([6]; associated with limited decrease in LVEF) was “well tolerate”, the “compliance of the left ventricle” value ([6]; increase in LVEDV with reduction in LV filling pressure (E/e′), emerging data, Cohorts A and B) was “improving compliance of the left ventricle” and the “LVEF maintained with clinical improvement in oHCM (symptom improvement and peak VO2)” value ([6]; plasma concentrations of 350 to 700 ng/mL) was at least 55%. For the same molecule, the “LVOT gradient level reached” value ([6]; plasma concentrations of 350 to 700 ng/mL, generally) was under 30 mm Hg, the concentration at 12 weeks [7] was over 1000 ng/mL and the SAEs [8] was “No SAEs reported”. For the same molecule, the “severity of adverse events” value [8] was “all mild to moderate” and the “number of AEs reported” value ([8]; in 33 subjects) was 54.
